Reference: PubChem BioAssay (NCI)
Values joined by “and” are separate entries in the source; they are usually repeats but may differ in a detail not shown here. Identical values can stand only once.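 Dose response: 5 concentrations. Exposure: 48 h. Format: 96-well plates. Endpoint: linear interpolation; highest concentration if not reached. GI50: concentration for 50% inhibition of growth. TGI: concentration producing complete growth inhibition.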

Columns and labels:
Assay in all cases: DTP human tumour cell line panel, 48 h
CCRF-CEM leukemia = system: CCRF-CEM leukemia
HCT-116 colon = system: HCT-116 colon
HOP-92 NSCLC = system: HOP-92 NSCLC
HT29 colon = system: HT29 colon
IGROV1 ovarian = system: IGROV1 ovarian
K-562 leukemia = system: K-562 leukemia
KM12 colon = system: KM12 colon
OVCAR-3 ovarian = system: OVCAR-3 ovarian
OVCAR-8 ovarian = system: OVCAR-8 ovarian
SK-MEL-5 melanoma = system: SK-MEL-5 melanoma
SNB-75 CNS = system: SNB-75 CNS
SW-620 colon = system: SW-620 colon
UACC-257 melanoma = system: UACC-257 melanoma
UACC-62 melanoma = system: UACC-62 melanoma

Structure (SMILES) | TGI (CCRF-CEM leukemia) | TGI (HCT-116 colon) [µM] | TGI (HOP-92 NSCLC) [µM] | TGI (HT29 colon) | TGI (IGROV1 ovarian) | TGI (K-562 leukemia) | TGI (KM12 colon) | TGI (OVCAR-3 ovarian) | TGI (OVCAR-8 ovarian) | TGI (SK-MEL-5 melanoma) | TGI (SNB-75 CNS) | TGI (SW-620 colon) [µM] | TGI (UACC-257 melanoma) | TGI (UACC-62 melanoma) | GI50 (IGROV1 ovarian) [µM] | GI50 (SNB-75 CNS) | GI50 (UACC-62 melanoma) [µM] | GI50 (HCT-116 colon) | GI50 (K-562 leukemia)
OCC1O[C@H](O[C@@H]2CCCN3CC(O)C(O)[C@@H]23)C(O)C(O)C1O (stereo not given in full) | > 100 µM | > 100 | > 100 | > 100 µM | > 100 µM | > 100 µM | > 100 µM | > 100 µM | > 100 µM | > 100 µM | > 100 µM | > 100 | > 100 µM | > 100 µM |  |  |  |  | 
Nc1nc(Nc2ccc(Cl)c(Cl)c2)nc2nc[nH]c12 | 41 µM | 34.1 | 33.5 | 30.6 µM | 27 µM | 47.4 µM | 28.6 µM | 27 µM | 28 µM | 27.7 µM | 20.9 µM | 41.6 | 32.7 µM | 29 µM |  |  |  |  | 
N#C/C(=C\c1ccncc1)c1csc2ccccc12 | 55.8 µM | 33.4 | 51.7 | 48.2 µM | 97.4 µM | 50.8 µM | 37.8 µM | 42.9 µM | > 85.1 µM | 33.2 µM | 78.5 µM | 67.7 | > 75.3 µM | > 76.4 µM |  |  |  |  | 
CN(C)CCNc1ccc2ncn3c4ccccc4c(=O)c1c23 | > 100 µM | 12 | 9.51 | 10.6 µM | 11.9 µM | > 100 µM | 13.3 µM | > 100 µM | 10.7 µM | 11.5 µM | 16 µM | 12.9 | 11.5 µM | 12.3 µM |  |  |  |  | 
CCCCCC(=O)N[C@@H](c1ccco1)[C@@H](O)C(=O)O[C@H]1C[C@@]2(O)[C@@H](OC(=O)c3ccccc3)[C@@H]3[C@]4(OC(C)=O)CO[C@@H]4C[C@H](O)[C@@]3(C)C(=O)[C@H](OC(C)=O)C(=C1C)C2(C)C |  | > 25 | > 25 | > 25 µM |  |  | > 25 µM | 0.000716 µM | > 25 µM | 4.52 µM |  |  |  |  | 0.00129 | 0.00226 µM | 0.00401 |  | 
O=C(Nc1ccc([N+](=O)[O-])cc1)Nn1cnnc1 | > 100 µM | > 100 | > 100 | > 100 µM | > 100 µM | > 100 µM | 72.6 µM | 72.8 µM | 67 µM | > 100 µM | > 100 µM | > 100 | > 100 µM | > 100 µM |  |  |  |  | 
O=C1OC(c2ccccc2)=NC1c1ccccc1 (stereo not given) | > 100 µM | > 100 | > 100 | > 100 µM | > 100 µM | > 100 µM | > 100 µM | > 100 µM | > 100 µM | > 100 µM | > 100 µM | > 100 | > 100 µM | > 100 µM |  |  |  |  | 
C[N+](C)(CCCCCC[N+](C)(C)CCCN1C(=O)c2cccc3cccc(c23)C1=O)CCCN1C(=O)c2cccc3cccc(c23)C1=O | > 100 µM | > 100 | > 100 | > 100 µM | > 100 µM | > 100 µM | > 100 µM | > 100 µM | > 100 µM | > 100 µM |  | > 100 | > 100 µM | > 100 µM |  |  |  |  | 
O=C1C(Cl)N(c2c(Cl)cccc2Cl)C1c1c[nH]c2ccccc12 (stereo not given) | > 100 µM | > 100 | > 100 | > 100 µM | > 100 µM | > 100 µM | > 100 µM | > 100 µM | > 100 µM | > 100 µM | > 100 µM | > 100 | > 100 µM | > 100 µM |  |  |  |  | 
CCNC(=O)C(C)C1CCC2(C)C=CC(=O)C(C)=C2C1O (stereo not given) | > 100 µM | > 100 | > 100 | > 100 µM | > 100 µM | > 100 µM | > 100 µM | > 100 µM | > 100 µM | > 100 µM | > 100 µM | > 100 | > 100 µM | > 100 µM |  |  |  |  | 
CC(C)=CCCC(C)(OC1OC(CO)C(O)C(O)C1O)C1CCC2(C)C1C(O)CC1C3(C)CCC(O)C(C)(C)C3C(OC3OC(CO)C(O)C(O)C3OC3OC(C)C(O)C(O)C3O)CC12C (stereo not given) (tested in a mixture with another compound) | > 75 µM | > 75 | > 75 | > 75 µM | > 75 µM | > 75 µM | > 75 µM | > 75 µM | > 75 µM | > 75 µM | > 75 µM | > 75 | > 75 µM | > 75 µM |  |  |  |  | 
O=NN1C(c2ccccc2)CNC(=O)CC1c1ccccc1 (stereo not given) | > 100 µM | > 100 | > 100 | > 100 µM | > 100 µM | > 100 µM | > 100 µM | > 92.7 µM | > 100 µM | > 93.1 µM | > 67.9 µM | > 100 | > 100 µM | > 100 µM |  |  |  |  | 
FC(F)(F)c1ccc2c(c1)N(CCCNCCN1CCOCC1)c1ccccc1S2 | 30.4 µM | 11.2 | 11.2 | 10.4 µM | 33.5 µM | 10.2 µM | 25 µM | 24.8 µM | 32.8 µM | 13.8 µM | 20.9 µM | 21.9 | 23.3 µM | 27.8 µM |  |  |  |  | 
Cc1c(O)c(=O)ccn1CCN | > 100 µM | > 100 | > 100 | > 100 µM | > 100 µM | > 100 µM | > 100 µM |  | > 100 µM |  | > 100 µM | > 100 | > 100 µM | > 100 µM |  |  |  |  | 
CC(CSC(=N)N)C(N)=O (stereo not given) | > 100 µM | > 100 | > 100 | > 100 µM | > 100 µM | > 100 µM | > 100 µM | > 100 µM | > 100 µM | > 100 µM | > 100 µM | > 100 | > 100 µM | > 100 µM |  |  |  |  | 
S=c1sc2c(s1)SC(c1ccccc1)CS2 (stereo not given) | > 100 µM | > 100 | > 100 | > 100 µM | > 100 µM | > 100 µM | > 100 µM | > 100 µM | > 100 µM | > 100 µM | > 94.2 µM | > 100 | > 100 µM | > 100 µM |  |  |  |  | 
COc1ccccc1/C=C(/C)[N+](=O)[O-] | 13 µM and > 100 µM |  | 5.72 | 12.6 µM and 9.89 µM | 5.18 µM and 3.72 µM | 5.15 µM and 7.34 µM | 10.2 µM and 3.46 µM | 3.15 µM and 2.68 µM | 4 µM and 4.24 µM | 5.1 µM and 3.59 µM | > 100 µM and 54.7 µM | 43.1 | 3.4 µM and 3.53 µM | 3.93 µM and 3.12 µM |  | 14.1 µM and 6.99 µM |  | 5.36 µM and 2.35 µM | 0.688 µM and 1.71 µM
Brc1ccc(C2C3CSc4ccccc4C3=NN2c2ccccc2)cc1 (stereo not given) | > 100 µM | > 100 | > 100 | > 100 µM | > 100 µM | > 100 µM | > 100 µM | > 100 µM | > 100 µM | > 100 µM | > 100 µM | > 100 | 95.6 µM | > 100 µM |  |  |  |  | 
O=C(NN1C(=O)C(Cl)C1c1ccccc1O)c1ccccc1O (stereo not given) | 70.6 µM | > 100 | > 100 | > 100 µM | > 100 µM | > 100 µM | > 100 µM | > 100 µM | > 100 µM | > 100 µM | > 100 µM | > 100 | > 100 µM | > 100 µM |  |  |  |  | 
COc1cc(OC2OC(CO)C(O)C(O)C2O)c2c(O)c3c(=O)cc(C)oc3cc2c1 (stereo not given) | > 100 µM | > 100 |  | > 100 µM | > 100 µM | > 100 µM | > 100 µM | > 100 µM | > 100 µM | > 100 µM | > 100 µM | > 100 | > 100 µM | > 100 µM |  |  |  |  | 
Cc1ccc(/C=C2\Sc3scc(-c4ccccc4)[n+]3C2=O)cc1 | 32.9 µM | > 52.1 | > 49.7 | 56.9 µM | > 56.8 µM | 31.5 µM | > 49.5 µM | > 100 µM | > 56.6 µM | > 58.2 µM | > 58.9 µM | > 52.4 | > 62.3 µM | 45.6 µM |  |  |  |  | 
OCC#CCNCl | > 100 µM | > 100 | > 100 | > 100 µM | > 100 µM | > 100 µM | > 100 µM | > 100 µM | > 100 µM | > 100 µM | > 100 µM | > 100 | > 100 µM | > 100 µM |  |  |  |  | 
CC(C)(O)/C1=C/C=C/CCCCCCCCCC1 | > 100 µM | > 100 | > 100 | > 100 µM | > 100 µM | > 100 µM | > 100 µM | > 100 µM | > 100 µM | 1.73 µM | 2.85 µM | > 100 | > 100 µM | > 100 µM |  |  |  |  | 
O=[N+]([O-])C(=C/c1ccccc1)/C(=C\c1ccccc1)[N+](=O)[O-] | 7.69 µM | 31.7 | 39.8 | 31.4 µM | 33.4 µM | > 100 µM | 29 µM | 45.3 µM | 47.1 µM | 30.2 µM | 37 µM | 28.6 | 32.1 µM | 30.7 µM |  |  |  |  | 
